{"source": "patent US8697668B2", "about": "“Compositions and methods for preventing and treating cancer via modulating UBE1L, ISG215 and/or UBP43” (Trustees of Dartmouth College, priority 2002, dated 2014)", "key": {"[1]": {"tested_on": "ISG15", "assay": "ISG15 expression and conjugation in NB4 cells", "type": "cell-based"}, "[2]": {"tested_on": "NB4-S1 APL cells", "assay": "NBT reduction maturation (differentiation) assay", "type": "cell-based", "details": "5 days treatment with RA (1 μM)", "method": "(§1) The NB4 APL cell line expresses PML/RARα (Lanotte, et al. (1991) Blood 77:1080-1086). NB4-S1 and NB4-R1 are RA-sensitive and RA-resistant clones of NB4 cells, respectively (Nason-Burchanel, et al. (1997) Differentiation 61:321-331). These cells were cultured in RPMI-1640 medium supplemented with 10% FBS (see, Nason-Burchenal et al. (1997) supra).\nNB4 cell differentiation was scored by using the nitroblue tetrazolium (NBT) reduction assay (Nason-Burchenal, et al. (1997) supra; Nason-Burchenal, et al. (1998a) Blood 92:1758-1767; Nason-Burchanel, et al. (1998b) Oncogene 17:1759-1768) Transductants were identified by green fluorescent protein (GFP) coexpression. Apoptosis was scored by using established techniques and Hoechst staining of transductants that co-expressed GFP (Nason-Burchenal, et al. (1998a) supra; Nason-Burchenal, et al. (1998b) supra; Stadheim, et al. (2001) Cancer Res. 61:1533-1540). Digital images were collected using an OLYMPUS 1×70 inverted microscope, a cooled charge-coupled device camera, and a MIRACAL Pro Single Cell Imaging System (OLYMPUS LSR Research, Melville, N.Y.)."}, "[3]": {"tested_on": "E1", "assay": "E1 mRNA expression in NB4-S1 cells", "type": "cell-based", "details": "RA 1 μM"}, "[4]": {"tested_on": "UBE1L", "assay": "UBE1L immunoblot expression in NB4 cells", "type": "cell-based", "details": "NB4-S1 APL cells, RA 1 μM", "from_the_text": "Two rabbit polyclonal antibodies against UBE1L were independently derived (Covance Research Products, Denver, Pa.) using one peptide within the amino terminus (Asp-Cys-Asp-Pro-Arg-Ser-Ile-His-Val-Arg-Glu-Asp-Gly-Ser-Leu-Glu-Ile-Gly-Asp (SEQ ID NO:10)) and a second peptide within the carboxyl terminus (Pro-Gly-Ser-Gln-Asp-Trp-Thr-Ala-Leu-Arg-Glu-Leu-Leu-Lys-Leu-Leu (SEQ ID NO:11)). Specificities of these antisera were confirmed by immunoblot analyses of UBE1L-transfected CHO cells.\nImmunoblot analyses were performed using established techniques (Langenfeld, et al. (1997) Proc. Natl. Acad. Sci. USA 94:12070-12074; Spinella, et al. (1999) J. Biol. Chem. 274:22013-22018). Anti-RARα antibody was provided by and can be purchased from P. Chambon (Institut National de la Sant et de la Recherche Mdicale, Strasbourg, France) to detect PML/RARα (Nason-Burchenal, et al. (1998) Blood 92:1758-1767; Nason-Burchenal, et al. (1998) Oncogene 17:1759-1768). An anti-HA mAb was purchased (Babco, Richmond, Calif.) as was an anti-actin polyclonal antibody, C-11 (Santa Cruz Biotechnology, Santa Cruz, Calif.)."}, "[5]": {"tested_on": "UBE1L", "assay": "UBE1L mRNA expression, reverse transcription-PCR in NB4 APL cells", "type": "cell-based", "details": "10 μM RA", "method": "as §1\nUBE1L mRNA expression was assessed by a reverse transcription-PCR assay in accordance with established methods (Kakizuka et al. (1991) Cell 68:663-674). The forward primer was 5′-AGGTGGCCAAGAACTTGGTT-3′ (SEQ ID NO:8), and the reverse primer was 5′-CACCACCTGGAAGTCCAACA-3′ (SEQ ID NO:9). The PCR product was visualized by probing with a ^32P-labeled primer. Results were confirmed independently by Northern analysis using a 1.0-kb EcoRI/NcoI-radiolabeled UBE1L probe in accordance with standard techniques (Langenfeld et al. (1997) Proc. Natl. Acad. Sci. USA 94:12070-12074). This probe had limited homology to E1."}, "[6]": {"tested_on": "cyclin D1", "assay": "Cyclin D1 immunohistochemical expression, post- versus pretreatment lung cancer biopsies", "type": "in vivo", "from_the_text": "(§2) Paraffin-embedded and formalin-fixed tissues were obtained from an Institutional Review Board-approved proof of principle bexarotene lung cancer trial (Dragnev, et al. (2007) supra). Tissues were examined for cyclin D1 (Petty, et al. (2004) supra; Dragnev, et al. (2007) supra; Dragnev, et al. (2005) supra), UBE1L (Pitha-Rowe, et al. (2004) supra), ISG15 (Andersen, et al. (2006) Br. J. Cancer 94:1465-71), and Ki-(Petty, et al. (2004) supra; Dragnev, et al. (2007) supra; Dragnev, et al. (2005) supra) immunohistochemical expression profiles."}, "[7]": {"tested_on": "cyclin D1", "assay": "Cyclin D1 immunoblot in H358 cells", "type": "cell-based", "method": "(§3) The H358 lung cancer cell line was cultured in RPMI-1640 medium (INVITROGEN Corporation, Carlsbad, Calif.) containing L-glutamine, 10% fetal bovine serum and 1% antibiotic-antimycotic solution (CELLGRO, Herndon, Va.) (Petty, et al. (2004) Clin. Cancer Res. 10:7547-54). Cells were incubated at 37° C. in a humidified incubator with 5% CO2. Bexarotene treatments of HBE and lung cancer cells were accomplished according to known methods (Dragnev, et al. (2007) Clin. Cancer Res. 13:1794-800; Dragnev, et al. (2005) J. Clin. Oncol. 23:8757-64).\n(§4) Cells were lysed with ice-cold radioimmunoprecipitation (RIPA) lysis buffer, using established techniques (Pitha-Rowe, et al. (2004) supra; Pitha-Rowe, et al. (2004) supra; Feng, et al. (2007) supra; Ma, et al. (2005) Cancer Res. 65:6476-83). Lysates were size-fractionated by sodium dodecyl sulphate-polyacrylamide gel electrophoresis (SDS-PAGE) assays before transfer to nitrocellulose membranes (Schleicher & Schuell Bioscience, Inc., Keene, N.H.). The polyclonal antibody recognizing the UBE1L amino terminus of UBE1L was used for immunoblot and immunohistochemical assays. […] Quantification of signal intensities was scored as before (Shah, et al. (2008) supra; Feng, et al. (2007) supra; Ma, et al. (2005) supra). […]"}, "[8]": {"tested_on": "UBE1L", "assay": "UBE1L immunoblot in BEAS-2B cells", "type": "cell-based, human", "details": "1 μM, 10 days treatment versus vehicle", "method": "as §3, §4"}, "[9]": {"tested_on": "Ki-67", "assay": "Ki-67 immunostaining (proliferation), post- versus pretreatment lung cancer biopsies", "type": "in vivo", "from_the_text": "as §2"}, "[10]": {"tested_on": "cyclin D1", "assay": "Cyclin D1 immunoblot in BEAS-2B cells", "type": "cell-based, human", "method": "as §3, §4"}, "[11]": {"tested_on": "UBE1L", "assay": "UBE1L immunohistochemical expression, post- versus pretreatment lung cancer biopsies", "type": "in vivo", "from_the_text": "as §2"}, "[12]": {"tested_on": "ISG15", "assay": "ISG15 immunohistochemical expression, post- versus pretreatment lung cancer biopsies", "type": "in vivo", "details": "post- and pre-bexarotene treatment biopsies of the lung cancer cases", "from_the_text": "as §2"}, "[13]": {"details": "cited from earlier work"}, "[14]": {"tested_on": "BEAS-2B human bronchial epithelial cells", "assay": "Clonal growth assay", "type": "cell-based", "details": "bexarotene treatment, FIG. 2", "method": "Human bronchial epithelial cells (BEAS-2B) were cultured in serum-free LHC-9 medium (Biofluids, Rockville, Md.) in accordance with established techniques (Langenfeld, et al. (1997) Proc. Natl. Acad. Sci. USA 94:12070-12074; Boyle, et al. (1999) J. Natl. Cancer Inst. 91:373-379).\nFive μg of MSCVIRES-UBE1L-GFP and an empty vector were independently transfected into the Phoenix Amphotropic packaging cell line (ATCC, Manassas, Va.) using EUGENE 6 (Roche, Indianapolis, Ind.), and the vendor's recommended procedures. Forty-eight hours later, viral supernatants were […] respective transduced BEAS-2B HBE or H358 lung cancer cells with 4 μg/ml POLYBRENE (Sigma). Forty-eight hours later, cells positive for GFP expression were harvested using a FACSTAR Plus (Becton Dickinson, San Jose, Calif.) high speed sorting cytometer. This was repeated one week later to enrich for studied transductants.\nClonal growth assays (Langenfeld, et al. (1996) Oncogene 13:1983-90) were performed using 5×10^2 BEAS-2B and 1×10^3 H358 cells. These cells were independently engineered to over-express UBE1L or a control vector. […] Two weeks later, visible colonies were fixed and stained with DIFF QUIK solution (Baxtor, McGaw Park, Ill.) and quantified with the Col Count instrument (Oxford Optronix, Oxford, UK)."}, "[15]": {"tested_on": "ISG15-conjugated cyclin D1", "assay": "Immunoprecipitation/immunoblot of ISG15-cyclin D1 conjugates in BEAS-2B cells", "type": "cell-based, human", "details": "BEAS-2B cells co-transfected with UBE1L, ISG15 and cyclin D1", "from_the_text": "Cells were lysed with ice-cold radioimmunoprecipitation (RIPA) lysis buffer, using established techniques (Pitha-Rowe, et al. (2004) supra; Pitha-Rowe, et al. (2004) supra; Feng, et al. (2007) supra; Ma, et al. (2005) Cancer Res. 65:6476-83). Lysates were size-fractionated by sodium dodecyl sulphate-polyacrylamide gel electrophoresis (SDS-PAGE) assays before transfer to nitrocellulose membranes (Schleicher & Schuell Bioscience, Inc., Keene, N.H.). The polyclonal antibody recognizing the UBE1L amino terminus of UBE1L was used for immunoblot and immunohistochemical assays. Other primary antibodies for immunoblot assays included a rabbit polyclonal antibody recognizing cyclin D1 (M-20) (Santa Cruz Biotechnology, Santa Cruz, Calif.), a murine monoclonal antibody against hemagglutinin (HA)-tagged proteins (Babco, Richmond, Calif.) and a goat polyclonal antibody recognizing actin (Santa Cruz Biotechnology). Anti-mouse and anti-rabbit antisera were purchased (Amersham Biosciences, Piscataway, N.J.) as was anti-goat antisera (Santa Cruz Biotechnology) and these were used as respective secondary antibodies. Membranes used for immunoblot analyses were treated with the MEMCODE reversible stain (Pierce, Rockford, Ill.). […] Quantification of signal intensities was scored as before (Shah, et al. (2008) supra; Feng, et al. (2007) supra; Ma, et al. (2005) supra). […]"}, "[16]": {"details": "case with low bexarotene levels"}, "[17]": {"details": "lung cancer case with high levels"}, "[18]": {"details": "representative lung cancer case with low levels"}}, "note": "Like-named read-outs stand apart in the source and are kept apart here. Where a SMILES comes first, the peptide text is derived from it. [ ]: non-standard residue; d: D form. Nle = CCCC[C@H](N)C(=O)O"}
{"smiles": "CC1=C(/C=C/C(C)=C/C=C/C(C)=C/C(=O)O)C(C)(C)CCC1", "note": "[RA, All-trans-retinoic acid]", "values": [{"measurement": "ISG15 expression", "setting": "[1]; RA-sensitive NB4 cells", "value": "augments"}, {"measurement": "intracellular ISG15 conjugation", "setting": "[1]; retinoid-sensitive NB4 cells", "value": "increases"}, {"measurement": "NBT, %", "setting": "[2]", "value": 92, "unit": "%"}, {"measurement": "E1 mRNA", "setting": "[3]", "value": "not induced"}, {"measurement": "UBE1L protein expression", "setting": "[4]", "value": "induced"}, {"measurement": "UBE1L expression", "setting": "[5]; RA-resistant NB4-R1 cell line, same time period", "value": "not induced"}, {"measurement": "UBE1L mRNA induction", "setting": "[5]; RA-sensitive NB4-S1 cells, reverse transcription-PCR", "value": "induction occurred by three hours"}]}
{"smiles": "C=C(c1ccc(C(=O)O)cc1)c1cc2c(cc1C)C(C)(C)CCC2(C)C", "note": "[Bexarotene]", "values": [{"measurement": "cyclin D1 expression in post-versus pre-treatment biopsies", "setting": "[6]; case with high bexarotene plasma and intratumoral levels", "value": "declined"}, {"measurement": "cyclin D1 immunohistochemical expression profile", "setting": "[6]; [16]", "value": "not appreciably altered"}, {"measurement": "cyclin D1 protein", "setting": "[7]", "value": "repressed"}, {"measurement": "UBE1L expression", "setting": "[8]", "value": "prominently increased"}, {"measurement": "proliferation, Ki-67 immunostaining", "setting": "[9]; case with high bexarotene levels, post-versus pretreatment biopsies", "value": "decrease"}, {"measurement": "Repression of Ki-67 immunostaining", "setting": "[9]; [16]", "value": "not observed"}, {"measurement": "cyclin D1 protein", "setting": "[10]", "value": "repressed"}, {"measurement": "odds ratio, association between intratumoral bexarotene concentration and UBE1L increase", "setting": "[11]; 95% asymptotic CI 0.1, 354.9", "value": 6}, {"measurement": "UBE1L immunohistochemical expression", "setting": "[11]; case with high bexarotene levels", "value": "increase"}, {"measurement": "UBE1L immunohistochemical expression profile", "setting": "[11]; [16]", "value": "not appreciably altered"}, {"measurement": "response rate for UBE1L", "setting": "[11]; five cases examined, 95% CI 1, 72", "value": 20, "unit": "%"}, {"measurement": "ISG15 immunohistochemical expression", "setting": "[12]", "value": "similar"}, {"measurement": "bexarotene intratumoral level", "setting": "[13]; [17]", "value": 0.31, "unit": "µM"}, {"measurement": "bexarotene plasma level", "setting": "[13]; [17]", "value": 1.49, "unit": "µM"}, {"measurement": "bexarotene intratumoral level", "setting": "[13]; [18]", "value": 0.09, "unit": "µM"}, {"measurement": "bexarotene plasma level", "setting": "[13]; [18]", "value": 0.13, "unit": "µM"}, {"measurement": "BEAS-2B clonal growth", "setting": "[14]", "value": "dose-dependent decline"}, {"measurement": "BEAS-2B clonal growth", "setting": "[14]; listed as bexarotene", "value": "Dose-dependent inhibition"}]}
{"smiles": "CCCC[C@@H](C=O)NC(=O)[C@H](CC(C)C)NC(=O)[C@H](CC(C)C)NC(C)=O", "note": "[ALLN] (Ac-Leu-Leu-[Nle]-aldehyde)", "values": [{"measurement": "ISG15ylated cyclin D1 species", "setting": "[15]", "value": "stabilized"}]}
